Reference: patent US20230346773A1, “USE OF PCSK9 INHIBITOR IN PREPARATION OF PRODUCT FOR TREATING MULTIPLE DISEASES” (priority 2020, published 2023)

What was measured:
Assay type in all cases: in vivo, Wistar rats
VEGF protein = assay: Bleomycin pulmonary fibrosis rat model: VEGF protein in lung tissue by ELISA; settings: n = 6, x ± s
Procedure: (§1) Rats were numbered according to their body weight and divided into groups according to their body weight by random arrangement table method, and divided into small molecule compound treatment group (tail vein injection of PCSK9 small molecule compound inhibitor, 3 mg/kg·d), siPcsk9 treatment group (Tail vein injection of PCSK9 small interfering RNA, 3 mg/kg·d), monoclonal antibody treatment group (tail vein injection of PCSK9 monoclonal antibody, 3 mg/kg·d), peptide treatment group (tail vein injection of PCSK9 polypeptide inhibitor, 3 mg/kg·d), model group (injection of physiological saline into tail vein, 3 mg/kg·d), and blank control group (injection of physiological saline into tail vein, 3 mg/kg·d), 12 animals in each group, half male and half female. Rats in each group were anesthetized by intraperitoneal injection of 2% sodium pentobarbital ([…]), fixed on the operating table, and injected into the neck trachea. The control group was injected with normal saline (1.25 ml/kg), and the model group and each treatment group were injected with 5 U/mL bleomycin solution (5 mg/kg). […]
(§2) Peripheral venous blood was collected from the tail vein of animals in each group after modeling and 14 days after treatment, and the levels of superoxide dismutase (SOD) and catalase (CAT) in peripheral blood were detected. […]

MMP-9 = assay: Bleomycin pulmonary fibrosis rat model: MMP-9 expression in lung tissue; settings: after 14 days of treatment, tail vein 3 mg/kg·d, n = 6, x ± s
Procedure: as §1, §2

catalase (CAT) = assay: Bleomycin pulmonary fibrosis rat model: CAT in peripheral blood; settings: n = 6, x ± s
Procedure: as §1, §2

TIMP-1 = assay: Bleomycin pulmonary fibrosis rat model: TIMP-1 expression in lung tissue; settings: after 14 days of treatment, tail vein 3 mg/kg·d, n = 6, x ± s
Procedure: as §1, §2

[1] = test system: superoxide dismutase (SOD); assay: Bleomycin pulmonary fibrosis rat model: SOD in peripheral blood; settings: n = 6, x ± s
Procedure: as §1, §2

VEGF-mRNA = assay: Bleomycin pulmonary fibrosis rat model: VEGF-mRNA in lung tissue by reverse transcription PCR; settings: n = 6, x ± s
Procedure: as §1, §2

MMP-2 = assay: Bleomycin pulmonary fibrosis rat model: MMP-2 expression in lung tissue; settings: after 14 days of treatment, tail vein 3 mg/kg·d, n = 6, x ± s
Procedure: as §1, §2

[2] = after modeling (before the 14 days of treatment)
[3] = tail vein 3 mg/kg·d once a day for 14 days

With `COc1ccc(CCC(=O)N(c2nccc3ccccc23)[C@@H]2CCCNC2)cc1` [Compound group 1, R-IMPP] the “VEGF protein, 14 days after modeling” value (VEGF protein; [2]) was 38.47 ± 3.23 pg/mL, the “VEGF protein, 14 days after treatment” value (VEGF protein; [3]) was 57.61 ± 3.86 pg/mL and the MMP-9 (MMP-9) was 3.43 ± 0.34. The “CAT, 14 days after modeling” value (catalase (CAT); [2]) was 9.43 ± 2.31 kU/g, the “CAT, 14 days after treatment” value (catalase (CAT); [3]) was 14.45 ± 1.51 kU/g and the TIMP-1 (TIMP-1) was 8.56 ± 0.58. The “SOD, 14 days after modeling” value [1, 2] was 171.45 ± 13.92 U/ml, the “SOD, 14 days after treatment” value [1, 3] was 218.56 ± 14.36 U/ml and the “VEGF-mRNA, 14 days after modeling” value (VEGF-mRNA; [2]) was 0.53 ± 0.16. For the same compound, the “VEGF-mRNA, 14 days after treatment” value (VEGF-mRNA; [3]) was 0.85 ± 0.16 and the MMP-2 (MMP-2) was 2.67 ± 0.32.
